These results are taken from patent US8445501B2, “Substituted 7-carboxamido-pyrrolo[3,2-d]pyrimidines” (Takeda GmbH, priority 2008, dated 2013).

For this experiment, the target named is T1, human PDE5 (Homo sapiens, UniProt O76074).
T1 construct: from tissue; host or cells: platelets from fresh blood of human donors (lysate, 10,000 g supernatant)
Briefly: Inhibition of the type 5 phosphodiesterase (PDE5) activity, modified SPA test with platelet lysate. Type of experiment: biochemical. Conditions: PDE5 from human platelet lysate, 0.5 μM cGMP. The procedure, abridged: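 SPA-based cGMP hydrolysis, [3H]cGMP tracer in 0.5 μM cGMP, by sonicated human platelet lysate; motapizone (1 μM) and a PDE2 inhibitor (10 nM) block other PDEs. Reaction 15 min at 37 °C after 5 min preincubation, quenched with beads containing IBMX. IC50 from concentration-effect curves.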
The compound `O=C(N[C@H]1CC[C@H](NC(=O)C2(O)CC2)CC1)c1c[nH]c2c(-c3ccccc3OCC3CC3)ncnc12` [Example 226, trans-4-(2-Cyclopropylmethoxy-phenyl)-5H-pyrrolo[3,2-d]pyrimidine-7-carboxylic acid {4-[(1-hydroxy-cyclopropanecarbonyl)-amino]-cyclohexyl}-amide] showed an IC50 of 3.39 nM. That is a single-digit nanomolar value. `C[C@H](O)C(=O)N1CCC(NC(=O)c2c[nH]c3c(-c4ccccc4OCC4CC4)ncnc23)CC1` [Example 227, 4-(2-Cyclopropylmethoxy-phenyl)-5H-pyrrolo[3,2-d]pyrimidine-7-carboxylic acid [1-((S)-2-hydroxy-propionyl)-piperidin-4-yl]-amide] gave an IC50 of 14.1 nM. For `COc1cc(-c2ncnc3c(C(=O)NC4CCN(C(=O)[C@H](C)O)CC4)c[nH]c23)c(OCC2CC2)cc1F` [Example 228, 4-(2-Cyclopropylmethoxy-4-fluoro-5-methoxy-phenyl)-5H-pyrrolo[3,2-d]pyrimidine-7-carboxylic acid [1-((S)-2-hydroxy-propionyl)-piperidin-4-yl]-amide] the value was 0.162 nM. The compound `COc1cc(-c2ncnc3c(C(=O)N[C@@H]4CCCN(C(=O)CO)C4)c[nH]c23)c(OCC2CC2)cc1F` [Example 229, 4-(2-Cyclopropylmethoxy-4-fluoro-5-methoxy-phenyl)-5H-pyrrolo[3,2-d]pyrimidine-7-carboxylic acid [(R)-1-(2-hydroxy-acetyl)piperidin-3-yl]-amide] gave an IC50 of 0.2 nM. As for `COc1cc(-c2ncnc3c(C(=O)N[C@@H]4CCCN(C(=O)[C@H](C)O)C4)c[nH]c23)c(OCC2CC2)cc1F` [Example 230, 4-(2-Cyclopropylmethoxy-4-fluoro-5-methoxy-phenyl)-5H-pyrrolo[3,2-d]pyrimidine-7-carboxylic acid [(R)-1-((S)-2-hydroxy-propionyl)-piperidin-3-yl]-amide], the figure is 0.24 nM; as for `COc1cc(-c2ncnc3c(C(=O)N[C@@H]4CCN(C(=O)CO)C4)c[nH]c23)c(OCC2CC2)cc1F` [Example 231, 4-(2-Cyclopropylmethoxy-4-fluoro-5-methoxy-phenyl)-5H-pyrrolo[3,2-d]pyrimidine-7-carboxylic acid [(R)-1-(2-hydroxy-acetyl)-pyrrolidin-3-yl]amide], 0.692 nM. For the compound `COc1cc(-c2ncnc3c(C(=O)N[C@@H]4CCN(C(=O)[C@H](C)O)C4)c[nH]c23)c(OCC2CC2)cc1F` [Example 232, 4-(2-Cyclopropylmethoxy-4-fluoro-5-methoxy-phenyl)-5H-pyrrolo[3,2-d]pyrimidine-7-carboxylic acid [(R)-1-((S)-2-hydroxy-propionyl)-pyrrolidin-3-yl]amide], the IC50 is 0.355 nM.

Take `COc1cc(OCC2CC2)c(-c2ncnc3c(C(=O)N[C@H]4CC[C@H](NC(=O)CO)CC4)c[nH]c23)cc1F` [Example 233, trans-4-(2-Cyclopropylmethoxy-5-fluoro-4-methoxy-phenyl)-5H-pyrrolo[3,2-d]pyrimidine-7-carboxylic acid [4-(2-hydroxy-acetylamino)-cyclohexyl]-amide]: half-maximal inhibition (IC50) required 0.759 nM. As for `COc1cc(OCC2CC2)c(-c2ncnc3c(C(=O)N[C@H]4CC[C@H](NC(=O)[C@H](C)O)CC4)c[nH]c23)cc1F` [Example 234, trans-4-(2-Cyclopropylmethoxy-5-fluoro-4-methoxy-phenyl)-5H-pyrrolo[3,2-d]pyrimidine-7-carboxylic acid [4-((S)-2-hydroxy-propionylamino)-cyclohexyl]-amide], the figure is 0.977 nM; as for `COc1cc(OCC2CC2)c(-c2ncnc3c(C(=O)N[C@H]4CC[C@H](NC(=O)C5(O)CC5)CC4)c[nH]c23)cc1F` [Example 235, trans-4-(2-Cyclopropylmethoxy-5-fluoro-4-methoxy-phenyl)-5H-pyrrolo[3,2-d]pyrimidine-7-carboxylic acid {4-[(1-hydroxy-cyclopropanecarbonyl)-amino]-cyclohexyl}-amide], 0.457 nM. As for `COc1cc(OCC2CC2)c(-c2ncnc3c(C(=O)NC4CCN(C(=O)CO)CC4)c[nH]c23)cc1F` [Example 236, 4-(2-Cyclopropylmethoxy-5-fluoro-4-methoxy-phenyl)-5H-pyrrolo[3,2-d]pyrimidine-7-carboxylic acid [1-(2-hydroxy-ethanoyl)-piperidin-4-yl]amide], the figure is 1.66 nM; as for `COc1cc(OCC2CC2)c(-c2ncnc3c(C(=O)NC4CCN(C(=O)[C@H](C)O)CC4)c[nH]c23)cc1F` [Example 237, 4-(2-Cyclopropylmethoxy-5-fluoro-4-methoxy-phenyl)-5H-pyrrolo[3,2-d]pyrimidine-7-carboxylic acid [1-((S)-2-hydroxy-propanoyl)piperidin-4-yl]-amide], 0.617 nM; as for `COc1cc(OCC2CC2)c(-c2ncnc3c(C(=O)NC4CCN(C(=O)C5(O)CC5)CC4)c[nH]c23)cc1F` [Example 238, 4-(2-Cyclopropylmethoxy-5-fluoro-4-methoxy-phenyl)-5H-pyrrolo[3,2-d]pyrimidine-7-carboxylic acid {1-[1-(1-hydroxy-cyclopropyl)methanoyl]-piperidin-4-yl}-amide], 0.316 nM. In turn, `COc1cc(OCC2CC2)c(-c2ncnc3c(C(=O)N[C@H]4CCCN(C(=O)[C@H](C)O)C4)c[nH]c23)cc1F` [Example 239, 4-(2-cyclopropylmethoxy-5-fluoro-4-methoxy-phenyl)-5H-pyrrolo[3,2-d]pyrimidine-7-carboxylic acid [(S)-1-((S)-2-hydroxy-propanoyl)piperidin-3-yl]-amide] had an IC50 of 2.51 nM. In turn, `COc1cc(OCC2CC2)c(-c2ncnc3c(C(=O)N[C@@H]4CCCN(C(=O)[C@H](C)O)C4)c[nH]c23)cc1F` [Example 240, 4-(2-Cyclopropylmethoxy-5-fluoro-4-methoxy-phenyl)-5H-pyrrolo[3,2-d]pyrimidine-7-carboxylic acid [(R)-1-((S)-2-hydroxy-propanoyl)piperidin-3-yl]-amide] gave an IC50 of 0.501 nM. Compared with the last compound, the IC50 is about 5-fold lower. The compound `COc1cc(OCC2CC2)c(-c2ncnc3c(C(=O)N[C@@H]4CCN(C(=O)CO)C4)c[nH]c23)cc1F` [Example 241, 4-(2-Cyclopropylmethoxy-5-fluoro-4-methoxy-phenyl)-5H-pyrrolo[3,2-d]pyrimidine-7-carboxylic acid [(R)-1-(2-hydroxy-acetyl)pyrrolidin-3-yl]-amide] showed an IC50 of 1.35 nM. This IC50 lies about 2.7-fold higher than the previous one.

The compound `COc1cc(OCC2CC2)c(-c2ncnc3c(C(=O)N[C@@H]4CCN(C(=O)[C@H](C)O)C4)c[nH]c23)cc1F` [Example 242, 4-(2-Cyclopropylmethoxy-5-fluoro-4-methoxy-phenyl)-5H-pyrrolo[3,2-d]pyrimidine-7-carboxylic acid [(R)-1-((S)-2-hydroxy-propionyl)pyrrolidin-3-yl]-amide] had an IC50 of 0.977 nM. `Cc1ccc(OCC2CC2)c(-c2ncnc3c(C(=O)N[C@H]4CC[C@H](NC(=O)CO)CC4)c[nH]c23)c1` [Example 243, trans-4-(2-Cyclopropylmethoxy-5-methyl-phenyl)-5H-pyrrolo[3,2-d]pyrimidine-7-carboxylic acid [4-(2-hydroxy-acetylamino)-cyclohexyl]-amide]: half-maximal inhibition (IC50) required 2.29 nM.

A word on the IC50: it is the concentration that inhibits the measured activity by half. Higher therefore signals a need for much substance.
